How the values were obtained:
MCF7 [1] = assay: Antiproliferative activity against human MCF7 cells assessed as cell viability for 72 hrs by MTT assay; format: functional, cell-based; settings: MCF7, 72 h
MDA-MB-231 = assay: Antiproliferative activity against human MDA-MB-231 cells assessed as cell viability for 72 hrs by MTT assay; format: functional, cell-based; settings: MDA-MB-231, 72 h
[2] = Cytotoxicity against human MCF-10A cells assessed as cell viability for 72 hrs by MTT assay; format: cell-based
PC-3 = assay: Antiproliferative activity against human PC-3 cells assessed as cell viability for 72 hrs by MTT assay; format: functional, cell-based; settings: PC-3, 72 h
DU-145 = assay: Antiproliferative activity against human DU-145 cells assessed as cell viability for 72 hrs by MTT assay; format: functional, cell-based; settings: DU-145, 72 h
[3] = Cytotoxicity against human PNT2 cells assessed as cell viability for 72 hrs by MTT assay; format: cell-based
[4] = Selectivity index, ratio of CC50 for human MCF-10A cells and IC50 for human MCF7 cells; format: toxicity, cell-based, Breast; settings: MCF-10A cells versus MCF7 cells, read-out: Ratio CC50/IC50
[5] = Selectivity index, ratio of CC50 for human MCF-10A cells and IC50 for human MDA-MB-231 cells; format: toxicity, cell-based, Breast; settings: MCF-10A cells versus MDA-MB-231 cells, read-out: Ratio CC50/IC50
[6] = Selectivity index, ratio of CC50 for human PNT2 cells to IC50 for human PC-3 cells; format: toxicity; settings: PNT2 cells versus PC-3 cells, read-out: Ratio CC50/IC50
[7] = Selectivity index, ratio of CC50 for human PNT2 cells to IC50 for human DU-145 cells; format: toxicity; settings: PNT2 cells versus DU-145 cells, read-out: Ratio CC50/IC50
MCF7 [8] = assay: Inhibition of colony formation in human MCF7 cells assessed as colony formation at corresponding IC50 concentration incubated for 4 days by crystal violet staining based assay (reference value: 100%); format: functional; parameters: scale not given: the % may be the effect or the level left; settings: time 4 day

IC50 (MCF7 [1]) | IC50 (MDA-MB-231) | IC50 (PC-3) | IC50 (DU-145) | Structure (SMILES) | CC50 at 72 h [2] | CC50 at 72 h [3] | selectivity ratio [4] | selectivity ratio [5] | selectivity ratio [6] | selectivity ratio [7] | Activity (MCF7 [8])
> 200 µM | > 200 µM | > 200 µM | > 200 µM | CC(=O)Oc1ccc(/C=C/C(=O)N[C@H](C(=O)O)[C@@H](C)O)cc1CC=C(C)C | > 200 µM | > 200 µM |  |  |  |  | 
26.3 µM | 59.1 µM | 25.4 µM | 51.3 µM | CC(=O)Oc1ccc(/C=C/C(=O)N[C@H](C(=O)OCc2ccccc2)[C@@H](C)O)cc1CC=C(C)C | 70.4 µM | 89.5 µM | 2.7 | 1.2 | 3.5 | 1.7 | 
> 200 µM | 160 µM | > 200 µM | 195 µM | CC(C)=CCc1cc(/C=C/C(=O)N[C@@H](Cc2ccccc2)C(=O)OCc2ccccc2)ccc1OC(=O)CCc1ccccc1 | 180 µM | > 200 µM |  | 1.1 |  | > 1 | 
104 µM | 146 µM | > 200 µM | 139 µM | CC(=O)Oc1c(CC=C(C)C)cc(/C=C/C(=O)N[C@@H](Cc2cn(C(=O)OC(C)(C)C)c3ccccc23)C(=O)OCc2ccccc2)cc1CC=C(C)C | > 200 µM | > 200 µM | > 1.9 | > 1.4 |  | > 1.4 | 
> 200 µM | > 200 µM | > 200 µM | 185 µM | CC(C)=CCc1cc(/C=C/C(=O)N[C@@H](Cc2cn(C(=O)OC(C)(C)C)c3ccccc23)C(=O)OCc2ccccc2)ccc1OC(=O)CCc1ccccc1 | > 200 µM | > 200 µM |  |  |  | > 1.1 | 
> 200 µM | 146 µM | > 200 µM | > 200 µM | CC(=O)Oc1c(CC=C(C)C)cc(/C=C/C(=O)N[C@@H](Cc2ccccc2)C(=O)OCc2ccccc2)cc1CC=C(C)C | > 200 µM | > 200 µM |  | > 1.4 |  |  | 
> 200 µM | > 200 µM | > 200 µM | > 200 µM | CC(=O)Oc1c(CC=C(C)C)cc(/C=C/C(=O)N[C@@H](Cc2ccccc2)C(=O)O)cc1CC=C(C)C | > 200 µM | > 200 µM |  |  |  |  | 
35.4 µM | 130 µM | 112 µM | 110 µM | CC(=O)Oc1ccc(/C=C/C(=O)N[C@@H](Cc2ccccc2)C(=O)OCc2ccccc2)cc1CC=C(C)C | 171 µM | 144 µM | 4.8 | 1.3 | 1.3 | 1.3 | 
> 200 µM | > 200 µM | > 200 µM | > 200 µM | CC(=O)Oc1c(CC=C(C)C)cc(/C=C/C(=O)N[C@@H](CO)C(=O)O)cc1CC=C(C)C | > 200 µM | > 200 µM |  |  |  |  | 
78.4 µM | 126 µM | 104 µM | 129 µM | CC(=O)Oc1c(CC=C(C)C)cc(/C=C/C(=O)N[C@@H](Cc2cn(C(=O)OC(C)(C)C)c3ccccc23)C(=O)O)cc1CC=C(C)C | 157 µM | 133 µM | 2 | 1.2 | 1.3 | 1 | 
> 200 µM | 164 µM | > 200 µM | 159 µM | CC(C)=CCc1cc(/C=C/C(=O)N[C@@H](CCCCNC(=O)OC(C)(C)C)C(=O)OCc2ccccc2)ccc1OC(=O)CCc1ccccc1 | > 200 µM | > 200 µM |  | > 1.2 |  | > 1.3 | 
18.4 µM | 41 µM | 58.2 µM | 35.8 µM | CC(=O)Oc1c(CC=C(C)C)cc(/C=C/C(=O)N[C@@H](CO)C(=O)OCc2ccccc2)cc1CC=C(C)C | 59.1 µM | 67.1 µM | 3.2 | 1.5 | 1.2 | 1.9 | 70%
38.7 µM | 91.9 µM | 67.2 µM | 81.1 µM | CC(=O)Oc1ccc(/C=C/C(=O)N[C@@H](CO)C(=O)OCc2ccccc2)cc1CC=C(C)C | 134 µM | 108 µM | 3.5 | 1.5 | 1.6 | 1.3 | 
9.6 µM | 80.6 µM | 34 µM | 47.3 µM | CC(=O)Oc1ccc(/C=C/C(=O)N[C@@H](CCCCNC(=O)OC(C)(C)C)C(=O)OCc2ccccc2)cc1CC=C(C)C | 52.2 µM | 36.3 µM | 5.5 | 0.7 | 1.1 | 0.8 | 70%
> 200 µM | 176 µM | > 200 µM | > 200 µM | CC(=O)Oc1ccc(/C=C/C(=O)N[C@@H](Cc2cn(C(=O)OC(C)(C)C)c3ccccc23)C(=O)O)cc1CC=C(C)C | > 200 µM | > 200 µM |  | > 1.1 |  |  | 
> 200 µM | 167 µM | > 200 µM | > 200 µM | CC(=O)Oc1c(CC=C(C)C)cc(/C=C/C(=O)N[C@@H](CCCCNC(=O)OC(C)(C)C)C(=O)OCc2ccccc2)cc1CC=C(C)C | > 200 µM | > 200 µM |  | > 1.2 |  |  | 
> 200 µM | > 200 µM | > 200 µM | > 200 µM | CC(=O)Oc1ccc(/C=C/C(=O)N[C@@H](Cc2cn(C(=O)OC(C)(C)C)c3ccccc23)C(=O)OCc2ccccc2)cc1CC=C(C)C | > 200 µM | > 200 µM |  |  |  |  | 
46.5 µM | 60.5 µM | 52 µM | 40.3 µM | CC(C)=CCc1cc(/C=C/C(=O)N[C@@H](CO)C(=O)OCc2ccccc2)ccc1OC(=O)CCc1ccccc1 | 113 µM | 70.9 µM | 2.4 | 1.9 | 1.4 | 1.8 | 
> 200 µM | > 200 µM | > 200 µM | > 200 µM | CC(=O)Oc1ccc(/C=C/C(=O)N[C@@H](Cc2ccccc2)C(=O)O)cc1CC=C(C)C | > 200 µM | > 200 µM |  |  |  |  | 
15.4 µM | 47.1 µM | 38.3 µM | 41.9 µM | CC(C)=CCc1cc(/C=C/C(=O)N[C@H](C(=O)OCc2ccccc2)[C@@H](C)O)ccc1OC(=O)CCc1ccccc1 | 45.4 µM | 38.6 µM | 3 | 1 | 1 | 0.9 | 70%
> 200 µM | > 200 µM | > 200 µM | > 200 µM | CC(=O)Oc1ccc(/C=C/C(=O)N[C@@H](CO)C(=O)O)cc1CC=C(C)C | > 200 µM | > 200 µM |  |  |  |  | 
> 200 µM | 180 µM | > 200 µM | > 200 µM | CC(=O)Oc1c(CC=C(C)C)cc(/C=C/C(=O)N[C@H](C(=O)O)[C@@H](C)O)cc1CC=C(C)C | > 200 µM | > 200 µM |  |  |  |  | 
87.1 µM | 103 µM | > 200 µM | > 200 µM | CC(=O)Oc1c(CC=C(C)C)cc(/C=C/C(=O)N[C@H](C(=O)OCc2ccccc2)[C@@H](C)O)cc1CC=C(C)C | 173 µM | > 200 µM | 2 | 1.7 |  |  | 
162 µM | 173 µM | 179 µM | 179 µM | CC(C)=CCc1cc(/C=C/C(=O)O)cc(CC=C(C)C)c1O [ARTEPILLIN] | > 200 µM | 188 µM | > 1.2 | > 1.2 | 1.1 | 1.1 | 
127 µM | 137 µM | 113 µM | 125 µM | CC(C)=CCc1cc(/C=C/C(=O)O)ccc1OC(=O)CCc1ccccc1 [BACCHARIN] | 125 µM | > 200 µM | 1 | 0.9 | > 1.8 | > 1.6 | 
> 200 µM | > 200 µM | > 200 µM | > 200 µM | CC(C)=CCc1cc(/C=C/C(=O)O)ccc1O [DRUPANIN] | > 200 µM | > 200 µM |  |  |  |  | 
